Experiments:
[1] = Test of hypobare anoxemia (antianoxic activity); format: in vivo, male mice; conditions: head: orally, text: sub-cutaneously, 90 mm of Hg
Description: A--Test of hypobare anoxemia:
Male mice weighing 20-22 g, having fasted for 5 hours, were divided into groups of 10 animals and the test product was administered to the animals sub-cutaneously. Fifteen minutes after administration of the product, the animals were placed in a 2 liter dessicator in which the pressure was brought rapidly to 90 mm of Hg by a pump, and their time of survival was noted expressed in seconds. The increase of the survival time was recorded expressed as a percentage of the animals treated in relation to the control animals submitted to the same conditions.

[2] = Determination of hypotensive activity (carotidien arterial pressure, anesthetised rats); format: in vivo, male rats of WISTAR strain; conditions: vs initial control pressure
Description: The hypotensive activity was studied on male rats of WISTAR strain weighing about 300 g and anesthetised with nembutal (50 mg/kg by intraperitoneal route). The test product was administered intravenously into the jugular vein and the carotidien arterial pressure was measured before and after administration of the product. The following table reports the variations expressed in percentages of the arterial pressure after administration of the product in relation to the initial control arterial pressure.

[3] = Determination of antihypertensive activity (spontaneously hypertensive rats); format: in vivo, spontaneously hypertensive male rats of the OKAMOTO strain; conditions: 0.5 mg/kg orally; one hour after administration
Description: The anithypertensive activity was studied on spontaneously hypertensive male rats of the OKAMOTO strain aged 20 weeks and weighing 300 to 320 g. The product was administered orally 48 hours after the positioning of an intracarotidien catheter to measure the arterial pressure. The pressure was measured before and 1 hour after administration of the product. For the product of Example 3, at a dose of 0.5 mg/kg the variation in percentage of arterial pressure after administration of the product in relation to the initial control pressure was -15% one hour after administration.

dopaminergic receptors [4] = assay: Stereotype behavior; format: in vivo, male rats; conditions: intraperitoneal; rats, groups of 5; observed every half hour over 5 hours; starting dose
Description: The tests were carried out on groups of 5 male rats weighing 150 to 180 g and each animal was placed individually in a barred cage (29×25×17 cm) containing a few wood shaving. The test product was administered intraperitoneally and the behavior of the animals was noted every half hour over 5 hours with the rating recommended by HALLIWELL et al. [Brit. J. Pharmacol. (1964), Vol. 23, p. 330-350]. The animal was asleep (0), it was awake but immobile (1), it turned in the cage (2), it sniffed the cover (3), it licked the walls (4), it touched the wood shavings or the bars of the cage with its teeth (5), it bit the shavings or the bars of the cage (6).
The total is determined of the scores per group taken at different times after administrationof the product studied.

Acute toxicity (LD0) = format: in vivo; conditions: oral, mice
Description: The lethal dose LD0 of the product of Example 3 was evaluated after oral administration to mice. LD0 is the maximum dose not causing any mortality in 8 days.

cerebral neuronal cells = assay: enolase test (brain deprived of blood by ligature of the arteries); format: in vivo; conditions: Rattus norvegicus, ip; intraperitoneal; rats; read-out: dose to which the releasing of enolase is diminished
Description: Suffering cerebral neuronal cells release enolase and the test was carried out on rats whose brain had been totally deprived of blood by ligature of the arteries supplying the brain. The product of Example 3 administered intraperitoneally diminished the releasing of enolase to a dose of 0.1 mg/kg. Therefore it was considered that it protected the cerebral cells against ischemia.

dopaminergic receptors [5] = assay: Rotation behavior after unilateral lesion of the nigra-striated bundle by 6-hydroxydopamine; format: in vivo, male rats; conditions: intraperitoneal; rats, groups of 8; starting dose
Description: Male rats of 220 g were injured in the nigra-striated dopaminergic bundle according to Ungerstedt's method [Ungerstedt, Acta physiol. Scand. (1971) Vol. 82, suppl. 367.69-93], modified by unilateral injection of 9.2 μg of 6-hydroxydopamine hydrochloride in solution in 4 μl of physiological solution containing 0.5 mg/ml of ascorbic acid. […] It therefore caused an agonistic action on the dopaminergic receptors at the central level.

## 4a RS (4aα,7α,8aβ)-7-methylthiomethyl-2,4,4a,5,6,7,8a,9-octahydro-5-propylpyrazolo-[3,4-g]-1,4-benzoxazine hydrochloride [Example 4]
[1]; 1 mg/kg
  Increase in survival time: +32%
[2]; 0.01 mg/kg intravenous
  % Variation of arterial pressure, 5 minutes after administration: -5%
  % Variation of arterial pressure, 30 minutes after administration: -5%
[2]; 0.1 mg/kg intravenous
  % Variation of arterial pressure, 5 minutes after administration: -21%
  % Variation of arterial pressure, 30 minutes after administration: -17%

## CCCN1CCO[C@@H]2Cc3n[nH]cc3C[C@H]21 (relative stereo) [Example 3, [4a SR trans]-5-propyl-2,4,4a,5,6,7,8a,9-octahydro-pyrazolo-[4,3-g]-1,4-benzoxazine]
[1]; 0.01 mg/kg
  Increase in survival time: +37%
[1]; 0.1 mg/kg
  Increase in survival time: +90%
[3]
  variation in percentage of arterial pressure in relation to the initial control pressure: -15%
Dopaminergic receptors [4]
  dose from which stereotype movements are caused: 0.1 mg/kg
Acute toxicity (LD0)
  LD0 (maximum dose not causing any mortality in 8 days): ≥ 200 mg/kg
Cerebral neuronal cells
  minimal effective dose: 0.1 mg/kg
[2]; 0.01 mg/kg intravenous
  % Variation of arterial pressure, 5 minutes after administration: -19%
  % Variation of arterial pressure, 30 minutes after administration: -8%
[2]; 0.1 mg/kg intravenous
  % Variation of arterial pressure, 5 minutes after administration: -26%
  % Variation of arterial pressure, 30 minutes after administration: -21%
Dopaminergic receptors [5]
  dose from which rotations contra-lateral to the injured side are caused: 0.05 mg/kg

Source: patent US4661482A, “Use of pyrazolobenzoxazines in method of treating cerebral senescence and cerebral hypoxin” (Roussel Uclaf, priority 1985, dated 1987)
